# Assay results: patent US10508085B2, “Compounds and methods for IDO and TDO modulation, and indications therefor” (Plexxikon Inc., priority 2016, dated 2019)
# Like-named read-outs stand apart in the source and are kept apart here.
# Legend:
# [1] = biological target: T1, Human Indoleamine 2,3-dioxygenase (IDO) (Homo sapiens, UniProt P14902); experiment: Human IDO enzymatic assay (kynurenine level); assay type: biochemical
# T1 construct: His tag (N); made in house; host or cells: E. coli
# Summary of the method: (§1)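 Reactions were stopped with TCA, converting N-formylkynurenine to kynurenine for quantitation, with IC50 by nonlinear regression. IDO: 6 nM enzyme, 10 μM L-Trp, 20 min RT. TDO: 1 nM enzyme, 350 μM L-Trp, 70 min RT, both in pH 6.5 buffer.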
# [2] = biological target: T2, human TDO (TDO-expressing HEK293 cells) (Homo sapiens, UniProt P48775); experiment: Cell based kynurenine assay, TDO-expressing HEK293 cell clones
# T2 construct: expressed in transfected cells
# T2 sequence (P48775 whole entry): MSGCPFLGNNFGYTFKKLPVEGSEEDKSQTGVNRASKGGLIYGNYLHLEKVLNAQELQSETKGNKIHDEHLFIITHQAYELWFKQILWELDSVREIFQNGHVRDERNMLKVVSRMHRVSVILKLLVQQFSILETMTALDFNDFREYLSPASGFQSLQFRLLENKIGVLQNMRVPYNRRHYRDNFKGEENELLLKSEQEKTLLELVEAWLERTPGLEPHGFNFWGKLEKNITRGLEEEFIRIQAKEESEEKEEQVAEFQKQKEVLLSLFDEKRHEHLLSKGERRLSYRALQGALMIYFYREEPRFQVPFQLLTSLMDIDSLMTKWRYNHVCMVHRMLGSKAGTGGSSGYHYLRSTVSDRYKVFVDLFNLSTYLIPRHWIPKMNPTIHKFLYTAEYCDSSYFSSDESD
# Summary of the method: (§2)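 Supernatant kynurenine was measured after 24 h exposure of stably transfected HEK293 cells (human IDO1 or TDO, 2.5×10^4/well) to serially diluted compound. Percent inhibition used 0.2% DMSO cell wells as high and media-only wells as low controls; IC50 fitted by nonlinear regression.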
# [3] = biological target: T3, human IDO (IDO1-expressing HEK293 cells) (Homo sapiens, UniProt P14902); experiment: Cell based kynurenine assay, IDO1-expressing HEK293 cell clones
# T3 construct: expressed in transfected cells
# T3 sequence (P14902 whole entry): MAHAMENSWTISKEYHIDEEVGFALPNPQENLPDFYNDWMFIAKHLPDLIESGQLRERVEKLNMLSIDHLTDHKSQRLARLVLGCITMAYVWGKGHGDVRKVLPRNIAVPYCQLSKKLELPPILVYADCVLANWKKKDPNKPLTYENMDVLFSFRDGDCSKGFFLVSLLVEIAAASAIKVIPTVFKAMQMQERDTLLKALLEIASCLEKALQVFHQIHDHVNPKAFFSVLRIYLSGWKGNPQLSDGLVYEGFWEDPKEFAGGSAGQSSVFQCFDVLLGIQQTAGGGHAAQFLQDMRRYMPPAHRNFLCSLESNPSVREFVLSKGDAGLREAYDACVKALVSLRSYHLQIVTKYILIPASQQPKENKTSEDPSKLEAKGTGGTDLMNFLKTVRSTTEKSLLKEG
# Summary of the method: as §2
# [4] = biological target: T4, Human Tryptophan 2,3-dioxygenase (TDO) (Homo sapiens, UniProt P48775); experiment: Human TDO enzymatic assay (kynurenine level); assay type: biochemical
# T4 construct: His tag (N); made in house; host or cells: E. coli
# T4 sequence (P48775 whole entry): as the sequence (P48775 whole entry) above
# Summary of the method: as §1
# [5] = 6 nM IDO, 10 μM L-Trp, geometric mean, read-out: IDO1 GMean: IC50 (μM) (Biochemical Assay)
# [6] = TDO-expressing HEK293 cells, 24 hours incubation, geometric mean, read-out: HEK293 TDO Kynurenine GMean IC50 (μM) (Cellular Assay)
# [7] = IDO1-expressing HEK293 cells, 24 hours incubation, geometric mean, read-out: HEK293 IDO1 Kynurenine GMean IC50 (μM) (Cellular Assay)
# [8] = 1 nM TDO, 350 μM L-Trp, geometric mean, read-out: TDO GMean: IC50 (μM) (Biochemical Assay)
# [9] = TDO-expressing HEK293 cells, 24 hours, geometric mean, read-out: HEK293 TDO Kynurenine GMean IC50 (μM) (Cellular Assay)
# [10] = IDO1-expressing HEK293 cells, 24 hours, geometric mean, read-out: HEK293 IDO1 Kynurenine GMean IC50 (μM) (Cellular Assay)
# T1 sequence (P14902 whole entry): as the sequence (P14902 whole entry) above
Structure (SMILES),"IC50 [1, 5]","IC50 [2, 6]","IC50 [3, 7]","IC50 [4, 8]","IC50 [2, 9]","IC50 [3, 10]","IC50 ([1]; biochemical assay, comparative examples, 4,6 versus 5,7 indazole, read-out: IDO1)","IC50 ([2]; cellular assay, HEK293, 24 hours, comparative examples, read-out: hTDO)","IC50 ([3]; cellular assay, HEK293, 24 hours, comparative examples, read-out: hIDO1)","IC50 ([4]; biochemical assay, comparative examples, 4,6 versus 5,7 indazole, read-out: TDO)"
"CC1(C)C2CCC(C2)[C@]12C[C@@](O)(c1cc(Cl)cc3cn[nH]c31)C2 (some centres unmarked) [Compound P-0193, (2s,3′s)-3′-(5-chloro-1H-indazol-7-yl)-3,3-dimethylspiro[bicyclo[2.2.1]heptane-2,1′-cyclobutan]-3′-ol]",0.0001 to 10 µM,0.0001 to 10 µM,0.0001 to 10 µM,0.0001 to 10 µM,–,–,–,–,–,–
"OC(c1cc(Cl)cc2cn[nH]c12)C1CCC1 (centres unmarked) [Compound P-0116, (5-chloro-1H-indazol-7-yl)(cyclobutyl)methanol]",0.0001 to 10 µM,0.0001 to 10 µM,0.0001 to 10 µM,0.0001 to 10 µM,–,–,–,–,–,–
"N#CC1CC=C(c2cc(Cl)cc3cn[nH]c23)CC1 (stereo not drawn) [Compound P-0105, 4-(5-chloro-1H-indazol-7-yl)cyclohex-3-ene-l-carbonitrile]",0.0001 to 10 µM,0.0001 to 10 µM,0.0001 to 10 µM,0.0001 to 10 µM,–,–,–,–,–,–
"O=C(O)C1CCC(C(O)c2cc(Cl)cc3cn[nH]c23)CC1 (centres unmarked) [Compound P-0219, 4-((5-chloro-1H-indazol-7-yl)(hydroxy)methyl)cyclohexane-1-carboxylic acid]",10 to 100 µM,> 10 µM,> 10 µM,0.0001 to 10 µM,–,–,–,–,–,–
"CN1CCC(C(C)(C)C(O)c2cc(Cl)cc3cn[nH]c23)CC1 (centres unmarked) [Compound P-0318, 1-(5-chloro-1H-indazol-7-yl)-2-methyl-2-(1-methylpiperidin-4-yl)propan-1-ol]",0.0001 to 10 µM,0.0001 to 10 µM,0.0001 to 10 µM,0.0001 to 10 µM,–,–,–,–,–,–
"CCC(=O)N1CCC(C(C)(C)[C@@H](O)c2cc(Cl)cc3cn[nH]c23)CC1 [Compound P-0423, (R)-1-(4-(1-(5-chloro-1H-indazol-7-yl)-1-hydroxy-2-methylpropan-2-yl)piperidin-1-yl)propan-1-one]",0.0001 to 10 µM,–,–,0.0001 to 10 µM,0.0001 to 10 µM,0.0001 to 10 µM,–,–,–,–
"CN1CCN(Cc2ccc(NC(=O)N3CCC(C(C)(C)C(O)c4cc(Cl)cc5cn[nH]c45)CC3)cc2)CC1 (centres unmarked) [Compound P-0491, 4-(1-(5-chloro-1H-indazol-7-yl)-1-hydroxy-2-methylpropan-2-yl)-N-(4-((4-methylpiperazin-1-yl)methyl)phenyl) piperidine-1-carboxamide]",0.0001 to 10 µM,–,–,0.0001 to 10 µM,0.0001 to 10 µM,0.0001 to 10 µM,–,–,–,–
"CCNS(=O)(=O)N1CCC(C(F)(F)C(O)c2cc(Cl)cc3cn[nH]c23)CC1 (centres unmarked) [Compound P-0331, 4-(2-(5-chloro-1H-indazol-7-yl)-1,1-difluoro-2-hydroxyethyl)-N-ethylpiperidine-1-sulfonamide]",0.0001 to 10 µM,0.0001 to 10 µM,0.0001 to 10 µM,0.0001 to 10 µM,–,–,–,–,–,–
"CC1(C(O)c2c(Cl)ccn3cncc23)CCCCC1 (centres unmarked) [Compound P-0098, (7-chloroimidazo[1,5-a]pyridin-8-yl)(1-methylcyclohexyl)methanol]",0.0001 to 10 µM,> 10 µM,0.0001 to 10 µM,0.0001 to 10 µM,–,–,–,–,–,–
"CC(C)(C1CCN(C(=O)NC2CCN(S(C)(=O)=O)CC2)CC1)C(O)c1cc(Cl)cc2cn[nH]c12 (centres unmarked) [Compound P-0450, 4-(1-(5-chloro-1H-indazol-7-yl)-1-hydroxy-2-methylpropan-2-yl)-N-(1-(methylsulfonyl)piperidin-4-yl)piperidine-1-carboxamide]",0.0001 to 10 µM,–,–,0.0001 to 10 µM,0.0001 to 10 µM,0.0001 to 10 µM,–,–,–,–
"CC(C)(C(O)c1cc(Cl)cc2cn[nH]c12)[C@H]1C[C@H]2CC[C@@H](C1)N2C(=O)NCC(F)(F)F (stereo partly drawn) [Compound P-0438, (1R,3r,5S)-3-(1-(5-chloro-1H-indazol-7-yl)-1-hydroxy-2-methylpropan-2-yl)-N-(2,2,2-trifluoroethyl)-8-azabicyclo[3.2.1] octane-8-carboxamide]",0.0001 to 10 µM,–,–,0.0001 to 10 µM,0.0001 to 10 µM,0.0001 to 10 µM,–,–,–,–
OC(c1cc(Cl)cc2cn[nH]c12)C1CCCCC1 (centres unmarked) [drawing 810],–,–,–,–,–,–,0.05 µM,1.2 µM,0.23 µM,0.17 µM
"CC(C)(C1CCOCC1)C(O)c1cc(Cl)cc2[nH]ncc12 (centres unmarked) [Compound P-0174, 1-(6-chloro-1H-indazol-4-yl)-2-methyl-2-(tetrahydro-2H-pyran-4-yl)propan-1-ol]",0.0001 to 10 µM,0.0001 to 10 µM,0.0001 to 10 µM,0.0001 to 10 µM,–,–,–,–,–,–
"OC(c1cc(Cl)cc2cn[nH]c12)C1(C(F)F)CCC1 (centres unmarked) [Compound P-0194, (5-chloro-1H-indazol-7-yl)(1-(difluoromethyl)cyclobutyl)methanol]",0.0001 to 10 µM,0.0001 to 10 µM,0.0001 to 10 µM,0.0001 to 10 µM,–,–,–,–,–,–
CC(C)(C(O)c1cc(Cl)cc2cn[nH]c12)[C@H]1C[C@H]2CC[C@@H](C1)N2C(N)=O (some centres unmarked) [Compound P-0340],0.0001 to 10 µM,0.0001 to 10 µM,0.0001 to 10 µM,0.0001 to 10 µM,–,–,–,–,–,–
"OC(c1c(Cl)c(Cl)cc2cn[nH]c12)C1CCC1 (centres unmarked) [Compound P-0237, cyclobutyl(5,6-dichloro-1H-indazol-7-yl)methanol]",0.0001 to 10 µM,0.0001 to 10 µM,0.0001 to 10 µM,0.0001 to 10 µM,–,–,–,–,–,–
"Cc1noc(C)c1NC(=O)N1CCC(C(C)(C)C(O)c2cc(Cl)cc3cn[nH]c23)CC1 (centres unmarked) [Compound P-0392, 4-(1-(5-chloro-1H-indazol-7-yl)-1-hydroxy-2-methylpropan-2-yl)-N-(3,5-dimethylisoxazol-4-yl)piperidine-1-carboxamide]",0.0001 to 10 µM,0.0001 to 10 µM,0.0001 to 10 µM,0.0001 to 10 µM,–,–,–,–,–,–
"CCS(=O)(=O)N1CCC(C(C)(C)[C@H](O)c2cc(Cl)cc3cn[nH]c23)CC1 [Compound P-0557, (S)-1-(5-chloro-1H-indazol-7-yl)-2-(1-(ethylsulfonyl)piperidin-4-yl)-2-methylpropan-1-ol]",0.0001 to 10 µM,–,–,0.0001 to 10 µM,0.0001 to 10 µM,0.0001 to 10 µM,–,–,–,–
"CS(=O)(=O)N1CCC(C2(C(O)c3cc(Cl)cc4cn[nH]c34)CC2)CC1 (centres unmarked) [Compound P-0158, (5-chloro-1H-indazol-7-yl)(1-(1-(methylsulfonyl)piperidin-4-yl)cyclopropyl)methanol]",0.0001 to 10 µM,0.0001 to 10 µM,0.0001 to 10 µM,0.0001 to 10 µM,–,–,–,–,–,–
"OC1(c2cc(Cl)cc3cn[nH]c23)CC2(CCCCC2)C1 [Compound P-0051, 2-(5-chloro-1H-indazol-7-yl)spiro[3.5]nonan-2-ol]",0.0001 to 10 µM,0.0001 to 10 µM,0.0001 to 10 µM,0.0001 to 10 µM,–,–,–,–,–,–
"O=C(NCC1COC1)N1CCC(C(F)(F)C(O)c2cc(Cl)cc3cn[nH]c23)CC1 (centres unmarked) [Compound P-0482, 4-(2-(5-chloro-1H-indazol-7-yl)-1,1-difluoro-2-hydroxyethyl)-N-(oxetan-3-ylmethyl)piperidine-1-carboxamide]",0.0001 to 10 µM,–,–,0.0001 to 10 µM,0.0001 to 10 µM,0.0001 to 10 µM,–,–,–,–
"CNC(=O)N1[C@@H]2CC[C@H]1C[C@@H](C(C)(C)C(O)c1cc(Cl)cc3cn[nH]c13)C2 (stereo partly drawn) [Compound P-0442, (1R,3r,5S)-3-(1-(5-chloro-1H-indazol-7-yl)-1-hydroxy-2-methylpropan-2-yl)-N-methyl-8-azabicyclo[3.2.1] octane-8-carboxamide]",0.0001 to 10 µM,–,–,0.0001 to 10 µM,0.0001 to 10 µM,0.0001 to 10 µM,–,–,–,–
"CCNC(=O)N1CCC(C(C)(C)[C@@H](O)c2cc(Cl)cc3cn[nH]c23)CC1 [Compound P-0428, (R)-4-(1-(5-chloro-1H-indazol-7-yl)-1-hydroxy-2-methylpropan-2-yl)-N-ethylpiperidine-1-carboxamide]",0.0001 to 10 µM,–,–,0.0001 to 10 µM,0.0001 to 10 µM,> 10 µM,–,–,–,–
"CCC(=O)N1CCC(C(C)(C)C(O)c2c(F)c(Cl)cc3cn[nH]c23)CC1 (centres unmarked) [Compound P-0421, 1-(4-(1-(5-chloro-6-fluoro-1H-indazol-7-yl)-1-hydroxy-2-methylpropan-2-yl)piperidin-1-yl)propan-1-one]",0.0001 to 10 µM,–,–,0.0001 to 10 µM,0.0001 to 10 µM,0.0001 to 10 µM,–,–,–,–
"NS(=O)(=O)N1CCC(C(F)(F)C(O)c2cc(Cl)cc3cn[nH]c23)CC1 (centres unmarked) [Compound P-0345, 4-(2-(5-chloro-1H-indazol-7-yl)-1,1-difluoro-2-hydroxyethyl) piperidine-1-sulfonamide]",0.0001 to 10 µM,0.0001 to 10 µM,0.0001 to 10 µM,0.0001 to 10 µM,–,–,–,–,–,–
"OC(c1cc(Cl)cc2cn[nH]c12)C1(C2CCOCC2)CC1 (centres unmarked) [Compound P-0221, (5-chloro-1H-indazol-7-yl)(1-(tetrahydro-2H-pyran-4-yl)cyclopropyl)methanol]",0.0001 to 10 µM,0.0001 to 10 µM,0.0001 to 10 µM,0.0001 to 10 µM,–,–,–,–,–,–
